According to patent US20100240537A1, “Substituted 6-(alkylbenzylamino)purine derivatives for use as cytokinin receptor antagonists and preparations containing these derivatives” (priority 2007, published 2010):
Read-outs that look alike come from different tables or passages of the source.

What was measured:
[1] = system: human diploid fibroblasts BJ; experiment: Calcein AM cytotoxicity assay, BJ; type: cell-based; settings: 72 hours
Excerpt: (§1) Absence of toxic effects against mammalian (especially human) cell lines in a wide concentration range is one of the requirements on compounds intended for use in agriculture. Because toxic compounds negatively influence metabolic processes in cells, many standard cytotoxicity assays are based on measurement of metabolisation rate of various artificial substrates. Resulting product is then quantified e.g. by means of spectrometry. The assays can be easily modified for use in 96-well plates. For evaluation of cytotoxic effect of the novel substituted 6-(alkylbenzylamino)purine derivatives of this invention, a microtiter assay based on quantification of metabolisation of Calcein AM was used. The assay is widely used in drug screening programs and in chemosensitivity testing. In live cells, Calcein AM is enzymatically hydrolysed and accumulation of resulting calcein is manifested by green fluorescence.
(§2) The cells were maintained in Nunc/Corning 80 cm^2 plastic tissue culture flasks and cultured in cell culture medium (DMEM with 5 g/l glucose, 2 mM glutamine, 100 U/ml penicillin, 100 μg/ml streptomycin, 10% fetal calf serum and sodium bicarbonate).
(§3) The cell suspensions were prepared and diluted according to the particular cell type and the expected target cell density (10^4 cells per well based on cell growth characteristics) and pippetted (80 μl) into 96-well plates. Inoculates were allowed a pre-incubation period of 24 hours at 37° C., 100% humidity and 5% CO2 for stabilisation. Tested compounds were added in total volume of 20 μl of water at time zero. Usually, test compound was evaluated at six 3-fold dilutions. In routine testing, the highest concentration tested was 100 μM, the eventual changes depended on physico-chemical characteristics of the respective compound. All drug concentrations were tested in triplicates. Incubations of cells with the test compounds lasted for 72 hours at 37° C., in 5% CO2 atmosphere and 100% humidity. At the end of incubation period Calcein AM (Molecular Probes) in PBS was added into final concentration of 1 μg/ml. After another 1 hour of incubation fluorescence (FD) was measured with the Labsystem FIA Reader Fluoroscan Ascent (UK). Growth inhibition (GI) was estimated using the following equitation: GI=(mean FDdrug exposed wells−mean FDblank)/(mean FDcontrol wells−mean FDblank)×100%.

[2] = system: erytroid leukemia cell line K-562; experiment: Calcein AM cytotoxicity assay, K-562; type: cell-based, human
Excerpt: as §1, §2, §3

[3] = system: breast carcinoma cell line MCF-7; experiment: Calcein AM cytotoxicity assay, MCF-7; type: cell-based, human
Excerpt: as §1, §2, §3

[4] = system: osteosarcoma cell line HOS; experiment: Calcein AM cytotoxicity assay, HOS; type: cell-based, human; settings: 72 hours
Excerpt: as §1, §2, §3

[5] = system: melanoma cell line G-361; experiment: Calcein AM cytotoxicity assay, G-361; type: cell-based, human
Excerpt: as §1, §2, §3

[6] = system: Human diploid fibroblasts SNF25; experiment: MTT viability assay on human diploid fibroblasts; type: cell-based; settings: SNF25 passage 19, 72 hours, read-out: IC50 (reduction in mitochondrial activity, MTT)
Protocol: MTT is a standard colorimetric assay for measurement of proliferation and survival of the cells. Yellow MTT is reduced into violet formazan in metabolically active cells. The amount of formazan is measured by spectrometry. Human diploid fibroblasts SNF25 (passage 19) were seeded in 96-well plate (5000 cells per well). After 6 hours, the cultivation medium (DMEM containing 5 g/l glucose, 2 mM glutamin, 100 U/ml penicillin, 100 μg/ml streptomycin and 10% fetal calf serum) was removed and fresh medium containing a test compound in concentration range of 0-100 μM was added. The concentration was adjusted in cases of compounds with limited solubility. Each concentration was tested in 5 replicates. MTT was added to the cells after 72 hours into final concentration of 0.5 mg/ml. Incubation time was 3 hours. Resulting MTT was disolved in DMSO and absorbance was measured. The cytotoxic effect was estimated as IC=(Awells with compounds/Acontrol wells)×100%.

[7] = system: cytokinin receptors CRE1/AHK4 and AHK3; experiment: Binding assay with membranes of E. coli expressing cytokinin receptors, competition with 3HtZ; parameters: species or system Arabidopsis; settings: negative control, 1000-fold higher concentration than compound 8
Protocol: Isolation of E. coli membranes and binding assays were carried out as previously described by Romanov et al. (Romanov et al. Analytical Biochemistry 347:129-134, 2005).

[8] = target: T1, CRE1/AHK4 (Arabidopsis thaliana, UniProt Q9C5U0); experiment: Activation of cytokinin receptor CRE1/AHK4 in E. coli KMI001 (β-galactosidase reporter); type: cell-based; settings: E. coli KMI001 pIN-III-AHK4, 17 h incubation; n.i. means without interaction; read-out: EC50 CRE1/AHK4 (activation of cytokinin receptor)
T1 construct: expressed in transfected cells; host or cells: Escherichia coli KMI001, plasmid pIN-III-AHK4
T1 sequence (Q9C5U0 whole entry): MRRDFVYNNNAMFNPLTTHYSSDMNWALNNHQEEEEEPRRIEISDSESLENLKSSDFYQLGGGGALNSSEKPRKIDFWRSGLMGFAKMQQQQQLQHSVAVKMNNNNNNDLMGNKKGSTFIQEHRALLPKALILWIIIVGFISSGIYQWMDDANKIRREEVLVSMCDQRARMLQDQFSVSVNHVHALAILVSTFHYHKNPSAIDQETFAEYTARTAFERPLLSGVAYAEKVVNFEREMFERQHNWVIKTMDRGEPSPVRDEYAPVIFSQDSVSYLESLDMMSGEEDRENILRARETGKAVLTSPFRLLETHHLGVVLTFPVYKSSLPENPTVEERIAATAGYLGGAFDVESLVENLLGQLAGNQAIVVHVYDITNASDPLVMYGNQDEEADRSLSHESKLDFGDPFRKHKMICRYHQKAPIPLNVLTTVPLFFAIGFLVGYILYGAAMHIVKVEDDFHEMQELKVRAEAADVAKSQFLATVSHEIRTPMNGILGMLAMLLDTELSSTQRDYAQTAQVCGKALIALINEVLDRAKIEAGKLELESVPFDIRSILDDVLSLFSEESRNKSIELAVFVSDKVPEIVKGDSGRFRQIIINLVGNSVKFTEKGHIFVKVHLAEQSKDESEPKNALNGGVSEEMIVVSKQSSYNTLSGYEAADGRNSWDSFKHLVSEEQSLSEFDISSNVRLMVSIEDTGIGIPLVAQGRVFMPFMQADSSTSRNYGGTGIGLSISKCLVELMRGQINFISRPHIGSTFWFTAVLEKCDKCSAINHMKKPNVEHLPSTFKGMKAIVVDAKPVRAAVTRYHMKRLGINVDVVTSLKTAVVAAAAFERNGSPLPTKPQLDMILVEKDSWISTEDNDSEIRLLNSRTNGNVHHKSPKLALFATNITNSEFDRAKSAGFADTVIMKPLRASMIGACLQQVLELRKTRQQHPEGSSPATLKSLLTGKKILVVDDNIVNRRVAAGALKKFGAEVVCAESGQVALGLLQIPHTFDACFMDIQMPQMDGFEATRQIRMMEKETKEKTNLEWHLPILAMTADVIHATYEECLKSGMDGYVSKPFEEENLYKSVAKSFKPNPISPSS
Protocol: (§4) Escherichia coli strains KMI001 harbouring the plasmid pIN-III-AHK4 or pSTV28-AHK3 were grown overnight at 25° C. in M9 media enriched with 0.1% casamino acids to OD600˜1. The preculture was diluted 1:600 in 1 ml M9 medium containing 0.1% casamino acids and 1 μl stock solution of either the tested compound (10^−7 M−5×10^−5 M) or solvent control (DMSO, ethanol, methanol) were added. The cultures were further grown at 25° C. in microtiter plate, 200 μl per well. […] The cultures were centrifuged and 50 μl aliquots of the supernatant were transferred to microtiter plate containing 2 μl 50 mM 4-methyl umbelliferyl galactoside which was subsequently incubated for 1 h at 37° C. The reaction was stopped by adding 100 μl 0.2 M Na2CO3. Fluorescence was measured using a Fluoroscan Ascent (Labsystems, Finland) at the excitation and emission wavelengths of 365 and 460 nm, respectively. The OD600 of remaining culture was determined and β-galactosidase activity was calculated as nmol 4-methylumbelliferone×OD600^−1×h^−1.
(§5) The EC50 value, the compound concentration activating the receptor to 50%, was calculated from the obtained dose response curves. The compound functioning as cytokinin antagonists should not activate cytokinin signalling pathway. The values shown in Table 2 are means of three replicates and the entire test was repeated at least twice.

[9] = target: T2, AHK3 (Arabidopsis thaliana, UniProt Q9C5U1); experiment: Activation of cytokinin receptor AHK3 in E. coli KMI001 (β-galactosidase reporter); type: cell-based; settings: E. coli KMI001 pSTV28-AHK3, 28 h incubation; n.i. means without interaction; read-out: EC50 AHK3 (activation of cytokinin receptor)
T2 construct: expressed in transfected cells; host or cells: Escherichia coli KMI001, plasmid pSTV28-AHK3
T2 sequence (Q9C5U1 1-1036): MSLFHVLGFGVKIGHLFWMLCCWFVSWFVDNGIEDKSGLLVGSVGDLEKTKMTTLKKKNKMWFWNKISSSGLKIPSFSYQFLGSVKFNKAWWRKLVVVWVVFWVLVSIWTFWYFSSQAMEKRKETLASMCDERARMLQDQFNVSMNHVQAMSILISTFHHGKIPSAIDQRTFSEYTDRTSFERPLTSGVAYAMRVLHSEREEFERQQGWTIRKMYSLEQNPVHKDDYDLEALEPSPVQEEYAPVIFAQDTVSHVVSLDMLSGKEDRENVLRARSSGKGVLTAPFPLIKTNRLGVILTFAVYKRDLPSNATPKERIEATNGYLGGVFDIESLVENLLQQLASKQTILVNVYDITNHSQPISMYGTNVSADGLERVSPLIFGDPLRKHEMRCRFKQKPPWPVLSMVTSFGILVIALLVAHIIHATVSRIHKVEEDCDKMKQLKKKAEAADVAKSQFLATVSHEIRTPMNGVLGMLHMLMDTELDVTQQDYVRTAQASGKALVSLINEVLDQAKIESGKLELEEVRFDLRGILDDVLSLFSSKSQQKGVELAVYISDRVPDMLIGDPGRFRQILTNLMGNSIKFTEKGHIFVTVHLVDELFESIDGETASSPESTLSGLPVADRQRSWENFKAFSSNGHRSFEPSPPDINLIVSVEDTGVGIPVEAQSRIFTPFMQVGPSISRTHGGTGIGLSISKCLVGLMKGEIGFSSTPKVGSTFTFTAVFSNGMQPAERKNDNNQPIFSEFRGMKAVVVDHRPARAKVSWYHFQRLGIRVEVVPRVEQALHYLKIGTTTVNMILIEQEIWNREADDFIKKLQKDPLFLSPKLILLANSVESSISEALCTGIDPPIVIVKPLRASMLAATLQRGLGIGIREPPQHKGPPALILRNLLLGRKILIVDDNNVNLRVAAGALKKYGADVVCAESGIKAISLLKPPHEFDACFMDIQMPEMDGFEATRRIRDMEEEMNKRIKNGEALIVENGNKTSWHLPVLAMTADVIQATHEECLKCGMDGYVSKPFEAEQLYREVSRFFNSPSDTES
Protocol: as §4, §5

| Structure (SMILES) | GI50 [1] [µM] | GI50 ([2]; 72 hours) [µM] | GI50 ([3]; 72 hours, read-out: GI50 MCF7) [µM] | GI50 [4] [µM] | GI50 ([5]; 72 hours) [µM] | IC50 [6] [µM] | GI50 ([1]; Homo sapiens, Fibroblast) [µM] | GI50 ([2]; Homo sapiens, K562, 72 hours) [µM] | GI50 ([3]; Homo sapiens, MCF7, 72 hours) [µM] | GI50 ([4]; Homo sapiens) [µM] | GI50 ([5]; Homo sapiens, G-361, 72 hours) [µM] | IC50 ([6]; Homo sapiens, Fibroblast) [µM] | effect on binding of 3HtZ [7] | EC50 [8] [µM] | EC50 [9] [µM] |
| --- | --- | --- | --- | --- | --- | --- | --- | --- | --- | --- | --- | --- | --- | --- | --- |
| CC(C)=CCNc1ncnc2nc[nH]c12 [isopentenyladenine] | > 100 | > 100 | > 100 | > 100 | > 100 | > 100 |  |  |  |  |  |  |  |  |  |
| c1coc(CNc2ncnc3[nH]cnc23)c1 [kinetin] |  |  |  |  |  |  | > 100 | > 100 | > 100 | > 100 | > 100 | > 100 |  |  |  |
| Oc1ccccc1CNc1ncnc2nc[nH]c12 [ortho-topolin] | > 100 | > 100 | > 100 | > 100 | > 100 | > 100 |  |  |  |  |  |  |  |  |  |
| Nc1ncnc2nc[nH]c12 [adenine] |  |  |  |  |  |  | > 100 | > 100 | > 100 | > 100 | > 100 | > 100 | not effective at all |  |  |
| Oc1cccc(CNc2ncnc3nc[nH]c23)c1 [meta-topolin] | > 100 | > 100 | > 100 | > 100 | > 100 | > 100 |  |  |  |  |  |  |  |  |  |
| C/C(=C\CNc1ncnc2nc[nH]c12)CO [trans-zeatin] | > 100 | > 100 | > 100 | > 100 | > 100 | > 100 |  |  |  |  |  |  |  | 0.9 | 2.1 |
